{
  "source": "paper PMC11238352",
  "about": "“Combination of dual JAK/HDAC inhibitor with regorafenib synergistically reduces tumor growth, metastasis, and regorafenib-induced toxicity in colorectal cancer” (Journal of Experimental & Clinical Cancer Research : CR, 2024)",
  "format_in_all_cases": "cell-based",
  "key": {"SW480 cells": {"system": "SW480 cells", "assay": "Annexin V-FITC/PI apoptosis flow cytometry", "conditions": "SW480, 72 h, average of three experiments", "description": "(§1) To evaluate the effect of drugs on apoptosis, cells were stained by use of TACS Annexin V-FITC apoptosis detection kit obtained from R&D Systems (Minneapolis, MN), following the manufacturer’s protocol. CRC cells (HCT116, RKO, HT29, and SW480) were seeded at 1 × 10^5/dish in triplicates in four groups: vehicle, JAK/HDACi, regorafenib, and the combination for 72 h. The cells were analyzed with a BD LSR FortessaTM Flow Cytometer (BD Biosciences, Mountain View, CA)."}, "HCT116 cells": {"system": "HCT116 cells", "assay": "Annexin V-FITC/PI apoptosis flow cytometry", "conditions": "HCT116, 72 h, average of three experiments", "description": "as §1"}, "HT29 cells": {"system": "HT29 cells", "assay": "Annexin V-FITC/PI apoptosis flow cytometry", "conditions": "HT29, 72 h, average of three experiments", "description": "as §1"}, "RKO cells": {"system": "RKO cells", "assay": "Annexin V-FITC/PI apoptosis flow cytometry", "conditions": "72 h, average of three experiments", "description": "as §1"}, "FGFR1": {"system": "FGFR1", "assay": "PamStation PTK kinomic profiling", "conditions": "change from DMSO control", "description": "(§2) SW480 and RKO cells were treated with vehicle (DMSO), JAK/HDACi, regorafenib, and their combination for 45 min, and cell lysates were prepared. Tyrosine kinase (PTK) activity (kinomic) profiling was performed using the PamStation®12 platform (PamGene, BV, The Netherlands). As per standard kinomic protocol as described previously. Whole-chip comparative analysis (BioNavigator Upkin PTK v8.0) was performed between groups generating Mean Kinase Statistics (direction of change)."}, "EphA2": {"biological_target": "T1, EphA2 (Homo sapiens, UniProt P29317)", "T1 construct": "cell lysates were prepared; endogenous in cells; host or cells: SW480 and RKO", "T1 sequence (P29317 24-976)": "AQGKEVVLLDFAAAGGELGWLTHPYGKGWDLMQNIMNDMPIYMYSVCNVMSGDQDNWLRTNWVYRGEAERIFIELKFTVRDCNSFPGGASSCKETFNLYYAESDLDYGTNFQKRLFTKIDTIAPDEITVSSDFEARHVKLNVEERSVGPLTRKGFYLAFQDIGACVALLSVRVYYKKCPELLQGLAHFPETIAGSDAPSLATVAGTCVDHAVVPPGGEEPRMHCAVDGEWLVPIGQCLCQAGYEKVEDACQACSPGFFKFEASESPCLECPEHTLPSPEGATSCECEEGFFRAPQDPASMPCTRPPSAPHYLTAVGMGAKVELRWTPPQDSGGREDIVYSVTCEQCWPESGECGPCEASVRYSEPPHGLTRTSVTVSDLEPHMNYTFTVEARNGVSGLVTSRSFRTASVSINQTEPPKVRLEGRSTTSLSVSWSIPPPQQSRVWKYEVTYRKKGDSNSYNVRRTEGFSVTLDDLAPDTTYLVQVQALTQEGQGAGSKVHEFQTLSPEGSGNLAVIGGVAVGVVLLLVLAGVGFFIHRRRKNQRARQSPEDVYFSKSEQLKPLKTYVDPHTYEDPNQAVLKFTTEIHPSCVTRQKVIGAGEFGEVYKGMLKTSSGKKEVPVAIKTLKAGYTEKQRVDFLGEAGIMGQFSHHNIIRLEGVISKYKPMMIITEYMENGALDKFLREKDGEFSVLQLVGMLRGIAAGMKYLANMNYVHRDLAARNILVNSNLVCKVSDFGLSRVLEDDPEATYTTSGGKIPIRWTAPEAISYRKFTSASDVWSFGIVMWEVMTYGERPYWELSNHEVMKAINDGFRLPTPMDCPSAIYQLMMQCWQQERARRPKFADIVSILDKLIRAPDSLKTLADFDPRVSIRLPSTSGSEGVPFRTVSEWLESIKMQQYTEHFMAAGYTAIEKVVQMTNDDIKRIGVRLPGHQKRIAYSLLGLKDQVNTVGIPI", "assay": "PamStation PTK kinomic profiling", "conditions": "change from DMSO control", "description": "as §2"}, "FAK2": {"biological_target": "T2, FAK2 (Homo sapiens, UniProt Q14289)", "T2 construct": "cell lysates were prepared; endogenous in cells; host or cells: SW480 and RKO", "assay": "PamStation PTK kinomic profiling", "conditions": "change from DMSO control", "description": "as §2"}, "HER4": {"biological_target": "T3, HER4 (Homo sapiens, UniProt Q15303)", "T3 construct": "we conducted kinome analysis on lysates of SW480 and RKO cells; endogenous in cells; host or cells: SW480 and RKO cells", "assay": "PamStation PTK kinomic profiling", "conditions": "change from DMSO control", "description": "as §2"}, "PDGFR[alpha]": {"biological_target": "T4, PDGFR[alpha] (Homo sapiens, UniProt P16234)", "T4 construct": "cell lysates were prepared; endogenous in cells; host or cells: SW480 and RKO", "T4 sequence (P16234 24-1089)": "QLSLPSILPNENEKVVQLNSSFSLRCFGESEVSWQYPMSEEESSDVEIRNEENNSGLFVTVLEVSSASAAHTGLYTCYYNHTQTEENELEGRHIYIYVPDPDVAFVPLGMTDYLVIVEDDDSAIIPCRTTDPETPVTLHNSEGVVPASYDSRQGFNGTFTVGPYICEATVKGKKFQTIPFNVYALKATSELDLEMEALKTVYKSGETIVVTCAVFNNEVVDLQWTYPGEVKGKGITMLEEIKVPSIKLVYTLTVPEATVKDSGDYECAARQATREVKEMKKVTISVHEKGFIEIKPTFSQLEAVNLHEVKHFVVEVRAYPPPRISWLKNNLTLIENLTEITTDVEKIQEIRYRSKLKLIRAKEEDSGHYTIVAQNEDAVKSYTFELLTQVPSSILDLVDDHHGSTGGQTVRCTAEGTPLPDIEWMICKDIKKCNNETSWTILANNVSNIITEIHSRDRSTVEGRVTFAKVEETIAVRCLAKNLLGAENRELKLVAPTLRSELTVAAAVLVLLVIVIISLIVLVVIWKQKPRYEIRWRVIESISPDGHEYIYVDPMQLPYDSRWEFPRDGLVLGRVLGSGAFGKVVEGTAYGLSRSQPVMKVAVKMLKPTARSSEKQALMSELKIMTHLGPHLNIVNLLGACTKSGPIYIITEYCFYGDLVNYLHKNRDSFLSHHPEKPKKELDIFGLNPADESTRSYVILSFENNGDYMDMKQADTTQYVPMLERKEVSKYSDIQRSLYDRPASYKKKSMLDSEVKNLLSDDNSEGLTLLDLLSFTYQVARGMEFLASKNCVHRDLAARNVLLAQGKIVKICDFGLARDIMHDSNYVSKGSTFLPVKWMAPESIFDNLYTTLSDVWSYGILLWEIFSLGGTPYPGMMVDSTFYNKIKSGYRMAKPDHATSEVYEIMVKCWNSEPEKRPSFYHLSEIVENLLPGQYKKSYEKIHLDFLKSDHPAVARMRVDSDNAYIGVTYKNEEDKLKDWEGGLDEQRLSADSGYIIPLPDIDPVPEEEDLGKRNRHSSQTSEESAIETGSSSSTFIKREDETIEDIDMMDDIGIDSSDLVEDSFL", "assay": "PamStation PTK kinomic profiling", "conditions": "change from DMSO control", "description": "as §2"}, "JAK1~b": {"biological_target": "T5, JAK1~b (Homo sapiens, UniProt P23458)", "T5 construct": "cell lysates were prepared; endogenous in cells; host or cells: SW480 and RKO", "assay": "PamStation PTK kinomic profiling", "conditions": "change from DMSO control", "description": "as §2"}, "EphA4": {"biological_target": "T6, EphA4 (Homo sapiens, UniProt P54764)", "T6 construct": "cell lysates were prepared; endogenous in cells; host or cells: SW480 and RKO", "T6 sequence (P54764 20-986)": "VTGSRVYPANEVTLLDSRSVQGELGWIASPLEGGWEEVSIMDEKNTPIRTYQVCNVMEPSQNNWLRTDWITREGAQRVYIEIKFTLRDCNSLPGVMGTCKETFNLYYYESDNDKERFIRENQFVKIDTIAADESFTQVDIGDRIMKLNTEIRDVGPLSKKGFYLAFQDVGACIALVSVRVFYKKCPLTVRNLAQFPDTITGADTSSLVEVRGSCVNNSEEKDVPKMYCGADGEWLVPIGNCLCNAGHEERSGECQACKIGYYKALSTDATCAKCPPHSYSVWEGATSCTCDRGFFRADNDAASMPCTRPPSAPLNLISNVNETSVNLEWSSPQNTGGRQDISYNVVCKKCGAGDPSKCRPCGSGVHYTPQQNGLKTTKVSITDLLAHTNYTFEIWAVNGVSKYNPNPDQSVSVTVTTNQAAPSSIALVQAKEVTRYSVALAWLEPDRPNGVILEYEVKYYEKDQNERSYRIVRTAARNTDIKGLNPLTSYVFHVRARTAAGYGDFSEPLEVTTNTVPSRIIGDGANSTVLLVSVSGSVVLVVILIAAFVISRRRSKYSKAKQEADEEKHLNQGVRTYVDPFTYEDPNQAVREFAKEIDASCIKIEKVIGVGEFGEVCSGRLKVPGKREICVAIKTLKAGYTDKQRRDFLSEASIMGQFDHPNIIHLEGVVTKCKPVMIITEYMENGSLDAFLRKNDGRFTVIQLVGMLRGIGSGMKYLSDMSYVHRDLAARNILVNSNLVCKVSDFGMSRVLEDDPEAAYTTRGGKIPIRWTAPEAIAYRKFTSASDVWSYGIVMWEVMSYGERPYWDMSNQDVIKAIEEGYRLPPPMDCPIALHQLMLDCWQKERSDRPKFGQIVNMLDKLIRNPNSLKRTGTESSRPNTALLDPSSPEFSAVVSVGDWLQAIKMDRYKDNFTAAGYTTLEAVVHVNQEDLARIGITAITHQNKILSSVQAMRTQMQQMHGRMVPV", "assay": "PamStation PTK kinomic profiling", "conditions": "change from DMSO control", "description": "as §2"}, "EphA1": {"biological_target": "T7, EphA1 (Homo sapiens, UniProt P21709)", "T7 construct": "cell lysates were prepared; endogenous in cells; host or cells: SW480 and RKO", "assay": "PamStation PTK kinomic profiling", "conditions": "change from DMSO control", "description": "as §2"}, "Abl": {"biological_target": "T8, Abl (Homo sapiens, UniProt P00519)", "T8 construct": "cell lysates were prepared; endogenous in cells; host or cells: SW480 and RKO", "assay": "PamStation PTK kinomic profiling", "conditions": "change from DMSO control", "description": "as §2"}, "FLT3": {"biological_target": "T9, FLT3 (Homo sapiens, UniProt P36888)", "T9 construct": "we conducted kinome analysis on lysates of SW480 and RKO cells; endogenous in cells; host or cells: SW480 and RKO cells", "T9 sequence (P36888 27-993)": "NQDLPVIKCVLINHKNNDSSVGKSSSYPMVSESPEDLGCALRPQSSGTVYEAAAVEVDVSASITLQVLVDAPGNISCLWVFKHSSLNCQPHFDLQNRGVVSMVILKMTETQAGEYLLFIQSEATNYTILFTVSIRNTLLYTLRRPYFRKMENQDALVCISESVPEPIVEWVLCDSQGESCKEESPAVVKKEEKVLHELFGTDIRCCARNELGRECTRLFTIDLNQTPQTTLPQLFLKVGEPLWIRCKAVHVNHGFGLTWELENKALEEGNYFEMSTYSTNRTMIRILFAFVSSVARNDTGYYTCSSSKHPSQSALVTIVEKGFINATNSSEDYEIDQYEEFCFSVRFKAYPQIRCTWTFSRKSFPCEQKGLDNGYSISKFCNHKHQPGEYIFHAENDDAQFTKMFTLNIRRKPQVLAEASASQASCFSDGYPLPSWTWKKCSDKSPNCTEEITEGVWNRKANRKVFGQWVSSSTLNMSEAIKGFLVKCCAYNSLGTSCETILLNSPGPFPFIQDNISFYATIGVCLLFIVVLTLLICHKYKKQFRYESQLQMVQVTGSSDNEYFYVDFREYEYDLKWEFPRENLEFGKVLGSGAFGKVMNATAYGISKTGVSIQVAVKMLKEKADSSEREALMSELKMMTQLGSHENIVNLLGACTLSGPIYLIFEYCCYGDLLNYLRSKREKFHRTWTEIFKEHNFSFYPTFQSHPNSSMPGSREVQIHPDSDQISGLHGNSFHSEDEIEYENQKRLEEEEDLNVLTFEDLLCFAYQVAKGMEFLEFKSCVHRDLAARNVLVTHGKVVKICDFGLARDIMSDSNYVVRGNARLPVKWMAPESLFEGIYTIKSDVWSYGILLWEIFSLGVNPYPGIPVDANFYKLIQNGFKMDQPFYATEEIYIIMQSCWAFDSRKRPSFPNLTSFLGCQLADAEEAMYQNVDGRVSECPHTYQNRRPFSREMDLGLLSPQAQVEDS", "assay": "PamStation PTK kinomic profiling", "conditions": "change from DMSO control", "description": "as §2"}, "Fgr": {"biological_target": "T10, Fgr (Homo sapiens, UniProt P09769)", "T10 construct": "we conducted kinome analysis on lysates of SW480 and RKO cells; endogenous in cells; host or cells: SW480 and RKO cells", "assay": "PamStation PTK kinomic profiling", "conditions": "change from DMSO control", "description": "as §2"}, "FGFR4": {"biological_target": "T11, FGFR4 (Homo sapiens, UniProt P22455)", "T11 construct": "cell lysates were prepared; endogenous in cells; host or cells: SW480 and RKO", "T11 sequence (P22455 22-802)": "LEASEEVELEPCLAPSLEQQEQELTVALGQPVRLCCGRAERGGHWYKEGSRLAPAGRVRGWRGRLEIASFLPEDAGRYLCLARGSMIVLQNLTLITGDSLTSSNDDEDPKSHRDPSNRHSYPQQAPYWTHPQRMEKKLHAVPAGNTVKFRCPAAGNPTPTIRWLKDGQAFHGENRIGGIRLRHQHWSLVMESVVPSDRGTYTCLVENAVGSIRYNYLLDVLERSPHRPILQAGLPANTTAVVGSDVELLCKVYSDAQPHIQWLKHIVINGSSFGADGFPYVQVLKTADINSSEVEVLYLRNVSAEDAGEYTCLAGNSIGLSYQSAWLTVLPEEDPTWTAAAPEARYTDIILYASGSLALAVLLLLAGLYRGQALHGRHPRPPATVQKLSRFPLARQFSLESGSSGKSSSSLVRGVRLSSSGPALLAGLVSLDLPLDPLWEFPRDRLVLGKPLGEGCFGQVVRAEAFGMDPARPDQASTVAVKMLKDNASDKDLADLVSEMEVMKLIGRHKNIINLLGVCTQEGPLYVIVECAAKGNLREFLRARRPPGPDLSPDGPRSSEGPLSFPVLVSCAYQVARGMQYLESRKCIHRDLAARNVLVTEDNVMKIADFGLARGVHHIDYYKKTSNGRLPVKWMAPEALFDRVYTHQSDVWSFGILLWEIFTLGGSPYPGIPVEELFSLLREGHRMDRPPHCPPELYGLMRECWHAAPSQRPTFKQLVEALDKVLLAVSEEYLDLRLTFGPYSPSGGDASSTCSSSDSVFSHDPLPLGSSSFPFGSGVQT", "assay": "PamStation PTK kinomic profiling", "conditions": "change from DMSO control", "description": "as §2"}, "FGFR3": {"biological_target": "T12, FGFR3 (Homo sapiens, UniProt P22607)", "T12 construct": "cell lysates were prepared; endogenous in cells; host or cells: SW480 and RKO", "assay": "PamStation PTK kinomic profiling", "conditions": "change from DMSO control", "description": "as §2"}, "EphA5": {"biological_target": "T13, EphA5 (Homo sapiens, UniProt P54756)", "T13 construct": "cell lysates were prepared; endogenous in cells; host or cells: SW480 and RKO", "assay": "PamStation PTK kinomic profiling", "conditions": "change from DMSO control", "description": "as §2"}, "Axl": {"biological_target": "T14, Axl (Homo sapiens, UniProt P30530)", "T14 construct": "cell lysates were prepared; endogenous in cells; host or cells: SW480 and RKO", "assay": "PamStation PTK kinomic profiling", "conditions": "change from DMSO control", "description": "as §2"}, "FGFR2": {"biological_target": "T15, FGFR2 (Homo sapiens, UniProt P21802)", "T15 construct": "cell lysates were prepared; endogenous in cells; host or cells: SW480 and RKO", "assay": "PamStation PTK kinomic profiling", "conditions": "RKO, 45 min, change from DMSO control", "description": "as §2"}},
  "data": [
    {"smiles": "CNC(=O)c1cc(Oc2ccc(NC(=O)Nc3ccc(Cl)c(C(F)(F)F)c3)c(F)c2)ccn1", "note": "[regorafenib]", "values": [
      {"measurement": "percentage of apoptotic cells (sum of early and late apoptotic cells)", "setting": "SW480 cells", "result": 11.17, "unit": "%"},
      {"measurement": "percentage of apoptotic cells (sum of early and late apoptotic cells)", "setting": "HCT116 cells", "result": 13.62, "unit": "%"},
      {"measurement": "percentage of apoptotic cells (sum of early and late apoptotic cells)", "setting": "HT29 cells", "result": 5.16, "unit": "%"},
      {"measurement": "percentage of apoptotic cells (sum of early and late apoptotic cells)", "setting": "RKO cells", "result": 1.18, "unit": "%"},
      {"measurement": "Mean Kinase Statistic, FGFR1", "setting": "FGFR1; RKO, 45 min", "result": 0.199},
      {"measurement": "Mean Kinase Statistic, FGFR1", "setting": "FGFR1; SW480, 45 min", "result": -0.180},
      {"measurement": "Mean Kinase Statistic, EphA2", "setting": "EphA2; RKO, 45 min", "result": 0.225},
      {"measurement": "Mean Kinase Statistic, EphA2", "setting": "EphA2; SW480, 45 min", "result": -0.097},
      {"measurement": "Mean Kinase Statistic, FAK2", "setting": "FAK2; RKO, 45 min", "result": -0.049},
      {"measurement": "Mean Kinase Statistic, FAK2", "setting": "FAK2; SW480, 45 min", "result": -0.181},
      {"measurement": "Mean Kinase Statistic, HER4", "setting": "HER4; RKO, 45 min", "result": 0.025},
      {"measurement": "Mean Kinase Statistic, HER4", "setting": "HER4; SW480, 45 min", "result": -0.223},
      {"measurement": "Mean Kinase Statistic, PDGFR[alpha]", "setting": "PDGFR[alpha]; RKO, 45 min", "result": 0.135},
      {"measurement": "Mean Kinase Statistic, PDGFR[alpha]", "setting": "PDGFR[alpha]; SW480, 45 min", "result": -0.175},
      {"measurement": "Mean Kinase Statistic, JAK1~b", "setting": "JAK1~b; RKO, 45 min", "result": 0.393},
      {"measurement": "Mean Kinase Statistic, JAK1~b", "setting": "JAK1~b; SW480, 45 min", "result": -0.185},
      {"measurement": "Mean Kinase Statistic, EphA4", "setting": "EphA4; RKO, 45 min", "result": -0.122},
      {"measurement": "Mean Kinase Statistic, EphA4", "setting": "EphA4; SW480, 45 min", "result": -0.155},
      {"measurement": "Mean Kinase Statistic, EphA1", "setting": "EphA1; RKO, 45 min", "result": 0.168},
      {"measurement": "Mean Kinase Statistic, EphA1", "setting": "EphA1; SW480, 45 min", "result": -0.125},
      {"measurement": "Mean Kinase Statistic, Abl", "setting": "Abl; RKO, 45 min", "result": -0.036},
      {"measurement": "Mean Kinase Statistic, Abl", "setting": "Abl; SW480, 45 min", "result": -0.154},
      {"measurement": "Mean Kinase Statistic, FLT3", "setting": "FLT3; RKO, 45 min", "result": 0.133},
      {"measurement": "Mean Kinase Statistic, FLT3", "setting": "FLT3; SW480, 45 min", "result": -0.243},
      {"measurement": "Mean Kinase Statistic, Fgr", "setting": "Fgr; RKO, 45 min", "result": -0.272},
      {"measurement": "Mean Kinase Statistic, Fgr", "setting": "Fgr; SW480, 45 min", "result": -0.185},
      {"measurement": "Mean Kinase Statistic, FGFR4", "setting": "FGFR4; RKO, 45 min", "result": 0.215},
      {"measurement": "Mean Kinase Statistic, FGFR4", "setting": "FGFR4; SW480, 45 min", "result": -0.166},
      {"measurement": "Mean Kinase Statistic, FGFR3", "setting": "FGFR3; RKO, 45 min", "result": 0.194},
      {"measurement": "Mean Kinase Statistic, FGFR3", "setting": "FGFR3; SW480, 45 min", "result": -0.292},
      {"measurement": "Mean Kinase Statistic, EphA5", "setting": "EphA5; RKO, 45 min", "result": -0.050},
      {"measurement": "Mean Kinase Statistic, EphA5", "setting": "EphA5; SW480, 45 min", "result": -0.324},
      {"measurement": "Mean Kinase Statistic, Axl", "setting": "Axl; RKO, 45 min", "result": -0.027},
      {"measurement": "Mean Kinase Statistic, Axl", "setting": "Axl; SW480, 45 min", "result": -0.146},
      {"measurement": "Mean Kinase Statistic, FGFR2", "setting": "FGFR2", "result": 0.180}
    ]}
  ]
}
